Source: PMC12647645, “Structural interactions of BWC0977 with Klebsiella pneumoniae topoisomerase IV and biochemical basis of its broad-spectrum activity” (Communications Biology, 2025)
≈ marks a conversion by molar mass, not a printed value.

Legend:
A. baumannii BAA 2885 = assay: microbe, parasite or virus in culture; assay type: cell-based; details: Acinetobacter baumannii, BAA2885
E. coli tolC strain = assay: MIC, efflux-deficient strain; assay type: cell-based
P. aeruginosa = tested on: P. aeruginosa; design: method as in ref 6 (Hameed P et al., 2024); details: ref 6 (Hameed P et al., 2024); cited from earlier work
[1] = tested on: E. coli MG1655 GyrA D82N, ParC WT; assay: microbe, parasite or virus in culture; assay type: cell-based; details: Escherichia coli
S. aureus ATCC 29213 = assay: MIC broth microdilution; assay type: cell-based; details: Staphylococcus aureus, ATCC29213
K. pneumoniae BAA 2784 = assay: microbe, parasite or virus in culture; assay type: cell-based; details: Klebsiella pneumoniae, BAA2784
P. aeruginosa ATCC 27853 [2] = details: 4× MIC
Protocol: Spontaneous resistance frequencies to BWC0977 were evaluated in E. coli ATCC 25922, P. aeruginosa ATCC 27853, and A. baumannii ATCC 19606. Mid-logarithmic phase cultures (~10^9 CFU/mL) were plated onto Luria-Bertani agar containing BWC0977 at 4×, 8×, and 16× the respective MICs. Plates were incubated at 37 °C for 24–36 h, and resistance frequencies were estimated by counting colony-forming units (CFUs) on the drug-containing plates. MICs of the isolated colonies were determined, and the gyrA, gyrB, parC, and parE genes were sequenced to assess for target-site mutations.

[3] = tested on: E. coli MG1655 GyrA WT, ParC R119K; assay: microbe, parasite or virus in culture; assay type: cell-based; details: Escherichia coli
E. faecium = tested on: E. faecium; design: method as in ref 6 (Hameed P et al., 2024); details: ref 6 (Hameed P et al., 2024); cited from earlier work
Human topo IIα = Human topo IIα (Homo sapiens, UniProt P11388); assay: Human topo IIα decatenation assay; assay type: biochemical
Sequence of Human topo IIα (P11388 whole entry): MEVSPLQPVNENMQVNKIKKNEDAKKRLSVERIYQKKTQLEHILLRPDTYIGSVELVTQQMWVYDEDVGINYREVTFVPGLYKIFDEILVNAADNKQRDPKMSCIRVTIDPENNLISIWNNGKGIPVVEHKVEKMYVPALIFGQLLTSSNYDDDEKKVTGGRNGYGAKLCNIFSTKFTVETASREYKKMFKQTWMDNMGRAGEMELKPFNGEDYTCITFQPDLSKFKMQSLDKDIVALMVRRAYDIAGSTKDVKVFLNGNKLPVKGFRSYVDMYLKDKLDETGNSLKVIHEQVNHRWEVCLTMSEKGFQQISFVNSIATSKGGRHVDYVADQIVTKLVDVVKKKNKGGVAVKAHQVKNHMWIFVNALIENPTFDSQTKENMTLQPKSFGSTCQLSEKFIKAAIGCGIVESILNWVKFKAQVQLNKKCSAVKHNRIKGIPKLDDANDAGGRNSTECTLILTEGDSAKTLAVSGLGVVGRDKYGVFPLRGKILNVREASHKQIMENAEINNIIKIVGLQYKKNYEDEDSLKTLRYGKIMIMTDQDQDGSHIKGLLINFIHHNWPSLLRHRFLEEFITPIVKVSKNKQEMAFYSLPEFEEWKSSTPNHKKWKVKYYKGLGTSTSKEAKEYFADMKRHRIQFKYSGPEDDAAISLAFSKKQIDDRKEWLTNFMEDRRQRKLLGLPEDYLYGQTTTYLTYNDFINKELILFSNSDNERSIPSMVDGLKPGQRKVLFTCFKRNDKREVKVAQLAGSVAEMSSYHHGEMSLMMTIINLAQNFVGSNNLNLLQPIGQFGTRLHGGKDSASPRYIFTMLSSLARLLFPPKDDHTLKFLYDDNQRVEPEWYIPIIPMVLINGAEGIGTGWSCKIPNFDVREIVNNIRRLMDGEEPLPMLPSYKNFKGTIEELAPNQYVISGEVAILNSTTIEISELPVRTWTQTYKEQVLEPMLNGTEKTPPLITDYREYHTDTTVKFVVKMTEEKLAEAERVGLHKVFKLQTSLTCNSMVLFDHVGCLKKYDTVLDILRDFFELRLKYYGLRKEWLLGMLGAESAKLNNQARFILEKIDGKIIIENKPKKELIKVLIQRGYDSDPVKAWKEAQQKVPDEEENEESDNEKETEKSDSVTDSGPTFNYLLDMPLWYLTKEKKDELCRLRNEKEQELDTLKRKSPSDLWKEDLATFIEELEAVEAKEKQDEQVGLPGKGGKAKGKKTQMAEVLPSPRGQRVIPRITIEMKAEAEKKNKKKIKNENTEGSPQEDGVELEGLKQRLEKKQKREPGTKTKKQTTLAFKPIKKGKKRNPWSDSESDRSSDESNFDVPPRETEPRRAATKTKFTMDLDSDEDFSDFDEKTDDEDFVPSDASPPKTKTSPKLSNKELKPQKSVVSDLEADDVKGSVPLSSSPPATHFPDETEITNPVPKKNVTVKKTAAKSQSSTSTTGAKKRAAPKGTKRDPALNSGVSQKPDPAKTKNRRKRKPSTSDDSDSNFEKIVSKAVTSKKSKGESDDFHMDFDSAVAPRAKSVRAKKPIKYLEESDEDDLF
Protocol: Human topo IIα (0.9 nM) and topo IIß (2.2 nM) decatenation assays were performed following the same protocol used for bacterial topoisomerase IV decatenation assays. The assay buffer was made of 50 mM Tris. HCl (pH 7.5), 125 mM NaCl, 10 mM MgCl2, 5 mM DTT, and 100 μg/mL albumin.

E. coli topoisomerase IV = biological target: T1, E. coli topoisomerase IV (Escherichia coli, UniProt P0AFI2+P20083); assay: Topoisomerase IV cleavage-complex assay; assay type: biochemical
T1 construct: purchased Inspiralis
Protocol: Reactions were stopped by adding 3.8 μL of a stop solution containing 0.8 μL Proteinase K (20 mg/mL) and 3 μL SDS (2%), followed by incubation at 37 °C for 60 min. Afterward, 4 μL of STEB loading buffer was added, and samples were run on pre-stained 0.8% agarose gels containing 0.4 μg/mL ethidium bromide. […] The % nicked and linear DNA formed with varying compound concentrations was plotted for comparison.

[4] = biological target: P. aeruginosa topoisomerase IV (Pseudomonas aeruginosa, UniProt Q9HUJ8+Q9HUK1); assay: Topoisomerase IV decatenation assay, P. aeruginosa; assay type: biochemical; design: Topo IV decatenation inhibition response: unit not given here
Sequence of P. aeruginosa topoisomerase IV (Q9HUK1 whole entry): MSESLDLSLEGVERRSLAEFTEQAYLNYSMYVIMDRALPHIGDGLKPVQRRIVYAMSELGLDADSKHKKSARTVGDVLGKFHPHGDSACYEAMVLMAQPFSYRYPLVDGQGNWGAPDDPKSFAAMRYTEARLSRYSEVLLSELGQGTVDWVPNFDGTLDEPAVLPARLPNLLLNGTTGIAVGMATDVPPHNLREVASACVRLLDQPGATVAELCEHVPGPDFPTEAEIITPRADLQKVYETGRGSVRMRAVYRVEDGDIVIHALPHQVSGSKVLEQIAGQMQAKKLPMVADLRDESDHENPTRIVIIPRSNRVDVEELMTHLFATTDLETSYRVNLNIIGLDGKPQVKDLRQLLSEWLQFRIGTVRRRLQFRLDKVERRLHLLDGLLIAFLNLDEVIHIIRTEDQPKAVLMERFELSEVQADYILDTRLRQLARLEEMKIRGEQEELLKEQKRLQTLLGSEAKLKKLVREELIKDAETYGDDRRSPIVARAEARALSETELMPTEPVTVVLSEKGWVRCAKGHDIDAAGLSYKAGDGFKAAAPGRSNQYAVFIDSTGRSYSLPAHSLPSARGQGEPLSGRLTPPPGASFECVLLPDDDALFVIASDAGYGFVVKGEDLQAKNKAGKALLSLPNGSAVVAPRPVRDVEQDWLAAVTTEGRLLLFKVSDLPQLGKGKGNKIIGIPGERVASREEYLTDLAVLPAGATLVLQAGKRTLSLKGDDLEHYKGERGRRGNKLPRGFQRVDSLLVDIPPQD
Sequence of P. aeruginosa topoisomerase IV (Q9HUJ8 whole entry): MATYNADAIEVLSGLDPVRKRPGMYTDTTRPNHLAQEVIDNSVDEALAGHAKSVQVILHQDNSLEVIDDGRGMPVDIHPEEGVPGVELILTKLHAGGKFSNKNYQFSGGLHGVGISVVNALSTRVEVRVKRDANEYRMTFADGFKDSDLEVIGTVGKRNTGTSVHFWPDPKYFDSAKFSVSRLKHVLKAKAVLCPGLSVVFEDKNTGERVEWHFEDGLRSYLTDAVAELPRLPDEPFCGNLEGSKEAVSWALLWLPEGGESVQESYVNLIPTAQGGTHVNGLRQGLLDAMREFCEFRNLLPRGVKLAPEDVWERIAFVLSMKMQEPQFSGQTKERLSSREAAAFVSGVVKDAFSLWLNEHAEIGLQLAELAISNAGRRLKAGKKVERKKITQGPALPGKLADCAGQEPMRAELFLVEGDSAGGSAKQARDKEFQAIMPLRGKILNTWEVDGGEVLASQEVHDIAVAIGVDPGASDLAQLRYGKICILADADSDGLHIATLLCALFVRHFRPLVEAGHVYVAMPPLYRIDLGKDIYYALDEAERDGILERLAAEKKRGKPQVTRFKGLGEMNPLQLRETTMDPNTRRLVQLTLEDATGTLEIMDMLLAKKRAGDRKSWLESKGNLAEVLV
Protocol: Topoisomerase IV decatenation reactions were performed using 2.5 nM E. coli enzyme and 60 ng kinetoplast DNA (kDNA) in an assay buffer containing 50 mM HEPES-KOH (pH 7.6), 100 mM potassium glutamate, 10 mM magnesium acetate, 10 mM DTT, 1 mM ATP, and 50 μg/mL albumin. Assays with P. aeruginosa topoisomerase IV (3 nM) were conducted in a similar buffer but with 50 mM HEPES-KOH (pH 7.9), 100 mM potassium glutamate, 6 mM magnesium acetate, 6 mM DTT, 1 mM ATP, 2 mM spermidine, and 50 μg/mL albumin. For S. aureus topoisomerase IV assay, the reactions contained 4 nM enzyme in an assay buffer composed of 50 mM Tris-HCl (pH 7.5), 5 mM MgCl₂, 5 mM DTT, 1.5 mM ATP, 350 mM potassium glutamate, and 0.05 mg/mL albumin. The procedures followed were consistent with those used in the supercoiling assays. Decatenated minicircles were resolved on 0.8% agarose gels, while the kDNA substrate remained in the wells. Gels were stained with 0.8 μg/mL ethidium bromide solution for 10 min, followed by destaining. DNA bands were visualized using a gel documentation system, and compound inhibition analysis was carried out using the same procedures described for the supercoiling assays.

P. aeruginosa ATCC 27853 [5] = assay: MIC broth microdilution; assay type: cell-based; details: Pseudomonas aeruginosa, ATCC27853
P. aeruginosa gyrase = P. aeruginosa gyrase (Pseudomonas aeruginosa, UniProt P48372+Q9I7C2); assay: biochemical; details: for Gyrase supercoiling inhibition response: P. aeruginosa gyrase
Sequence of P. aeruginosa gyrase (Q9I7C2 whole entry): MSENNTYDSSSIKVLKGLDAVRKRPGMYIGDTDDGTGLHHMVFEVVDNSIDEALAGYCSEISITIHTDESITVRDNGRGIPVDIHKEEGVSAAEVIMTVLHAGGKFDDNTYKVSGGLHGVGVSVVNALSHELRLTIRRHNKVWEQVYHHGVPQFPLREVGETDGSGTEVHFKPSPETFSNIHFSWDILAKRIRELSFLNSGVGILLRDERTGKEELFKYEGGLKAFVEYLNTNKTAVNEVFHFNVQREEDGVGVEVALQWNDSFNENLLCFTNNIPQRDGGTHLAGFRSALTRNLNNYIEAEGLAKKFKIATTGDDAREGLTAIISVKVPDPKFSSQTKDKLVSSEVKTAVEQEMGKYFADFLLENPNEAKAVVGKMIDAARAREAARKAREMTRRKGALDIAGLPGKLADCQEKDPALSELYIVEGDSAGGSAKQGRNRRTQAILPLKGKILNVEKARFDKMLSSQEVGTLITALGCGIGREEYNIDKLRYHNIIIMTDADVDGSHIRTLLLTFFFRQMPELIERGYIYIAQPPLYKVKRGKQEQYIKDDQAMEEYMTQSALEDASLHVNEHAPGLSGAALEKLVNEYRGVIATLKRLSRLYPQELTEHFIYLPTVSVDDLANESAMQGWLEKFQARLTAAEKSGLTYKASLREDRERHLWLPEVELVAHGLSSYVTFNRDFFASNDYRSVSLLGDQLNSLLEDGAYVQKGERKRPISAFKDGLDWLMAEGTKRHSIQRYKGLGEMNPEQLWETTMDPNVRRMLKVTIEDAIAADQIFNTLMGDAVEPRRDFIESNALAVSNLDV
Sequence of P. aeruginosa gyrase (P48372 whole entry): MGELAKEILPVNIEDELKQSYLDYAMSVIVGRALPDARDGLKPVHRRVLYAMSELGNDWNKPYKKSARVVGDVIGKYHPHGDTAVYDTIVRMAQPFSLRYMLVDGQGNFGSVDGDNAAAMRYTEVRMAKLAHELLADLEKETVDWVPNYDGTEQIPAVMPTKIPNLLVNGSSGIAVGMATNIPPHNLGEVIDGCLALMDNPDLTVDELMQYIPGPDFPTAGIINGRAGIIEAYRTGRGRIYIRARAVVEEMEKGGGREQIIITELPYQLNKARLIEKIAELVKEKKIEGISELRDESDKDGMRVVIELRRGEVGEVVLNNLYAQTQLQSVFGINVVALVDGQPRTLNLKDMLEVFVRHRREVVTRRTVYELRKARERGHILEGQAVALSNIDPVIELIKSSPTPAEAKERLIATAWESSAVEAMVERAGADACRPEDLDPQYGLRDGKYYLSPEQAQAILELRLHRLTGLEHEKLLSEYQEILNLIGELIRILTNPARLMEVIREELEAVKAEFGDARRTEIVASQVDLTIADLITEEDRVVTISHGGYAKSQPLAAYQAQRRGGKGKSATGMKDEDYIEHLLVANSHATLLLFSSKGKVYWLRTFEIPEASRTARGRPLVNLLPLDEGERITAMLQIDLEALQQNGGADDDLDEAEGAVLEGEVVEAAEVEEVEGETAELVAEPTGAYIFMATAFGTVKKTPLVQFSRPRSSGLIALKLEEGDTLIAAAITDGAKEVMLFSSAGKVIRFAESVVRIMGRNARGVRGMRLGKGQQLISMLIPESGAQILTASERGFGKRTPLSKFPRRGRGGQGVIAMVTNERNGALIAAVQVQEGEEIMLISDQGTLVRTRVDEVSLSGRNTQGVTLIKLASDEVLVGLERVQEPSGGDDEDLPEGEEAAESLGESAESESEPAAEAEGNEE

A. baumannii = tested on: A. baumannii; design: method as in ref 6 (Hameed P et al., 2024); details: ref 6 (Hameed P et al., 2024); cited from earlier work
P. aeruginosa BAA 2797 = assay: microbe, parasite or virus in culture; assay type: cell-based; details: Pseudomonas aeruginosa, BAA2797

Compound: Cn1c(=O)ccc2ccc(F)c(CCNC[C@H]3CN(c4cnc5c(n4)NC(=O)CO5)C(=O)O3)c21 [BWC0977]
- MIC (A. baumannii BAA 2885): 0.5 µg/mL (≈ 1.07 µM)
- difference in MICs between tolC strain and wild-type strain (E. coli tolC strain): 10 fold
- MIC (E. coli tolC strain; Escherichia coli): 0.001 µg/mL (≈ 0.00213 µM)
- MIC90 against diverse global isolates (P. aeruginosa): 1 µg/mL (≈ 2.13 µM)
- MIC [1]: 0.08 µg/mL (≈ 0.171 µM)
- MIC (S. aureus ATCC 29213): 0.007 µg/mL (≈ 0.0149 µM)
- MIC (K. pneumoniae BAA 2784): 0.125 µg/mL (≈ 0.267 µM)
- resistance frequency (P. aeruginosa ATCC 27853 [2]): less than 1 × 10^−9
- MIC [3]: 0.026 µg/mL (≈ 0.0555 µM)
- MIC90 against diverse global isolates (E. faecium): 0.12 µg/mL (≈ 0.256 µM)
- selectivity for bacterial enzymes over human topoisomerases IIα and IIβ (Human topo IIα): more than 5000 fold
- IC50 (Human topo IIα; read-out: IC50 Human topo IIα decatenation): 113000 ± 13000 nM
- type of DNA breaks induced (E. coli topoisomerase IV): single-strand DNA breaks
- IC50 [4]: 77 nM
- Topo IV decatenation inhibition response ([4]; P. aeruginosa topo IV, compound 0.0114 μM, source data Fig 2B, listed as 977, 0.0114 µM): 7.06
- inhibition at 0.0114 µM ([4]; P. aeruginosa topo IV, compound 0.0114 μM, source data Fig 2B, read-out: Topo IV decatenation inhibition response): 10.9%
- Topo IV decatenation inhibition response ([4]; P. aeruginosa topo IV, compound 0.0343 μM, source data Fig 2B, listed as 977, 0.0343 µM): 24.14
- inhibition at 0.0343 µM ([4]; P. aeruginosa topo IV, compound 0.0343 μM, source data Fig 2B, read-out: Topo IV decatenation inhibition response): 18.9%
- Topo IV decatenation inhibition response ([4]; P. aeruginosa topo IV, compound 0.1029 μM, source data Fig 2B, listed as 977, 0.1029 µM): 63.17
- inhibition at 0.1029 µM ([4]; P. aeruginosa topo IV, compound 0.1029 μM, source data Fig 2B, read-out: Topo IV decatenation inhibition response): 61.6%
- Topo IV decatenation inhibition response ([4]; P. aeruginosa topo IV, compound 0.3086 μM, source data Fig 2B, listed as 977, 0.3086 µM): 85.90
- inhibition at 0.3086 µM ([4]; P. aeruginosa topo IV, compound 0.3086 μM, source data Fig 2B, read-out: Topo IV decatenation inhibition response): 88.3%
- Topo IV decatenation inhibition response ([4]; P. aeruginosa topo IV, compound 0.9259 μM, source data Fig 2B, listed as 977, 0.9259 µM): 91.28
- inhibition at 0.9259 µM ([4]; P. aeruginosa topo IV, compound 0.9259 μM, source data Fig 2B, read-out: Topo IV decatenation inhibition response): 91.1%
- Topo IV decatenation inhibition response ([4]; P. aeruginosa topo IV, compound 2.7778 μM, source data Fig 2B, listed as 977, 2.7778 µM): 91.48
- inhibition at 2.7778 µM ([4]; P. aeruginosa topo IV, compound 2.7778 μM, source data Fig 2B, read-out: Topo IV decatenation inhibition response): 94.5%
- Topo IV decatenation inhibition response ([4]; P. aeruginosa topo IV, compound 8.3333 μM, source data Fig 2B, listed as 977, 8.3333 µM): 92.85
- inhibition at 8.3333 µM ([4]; P. aeruginosa topo IV, compound 8.3333 μM, source data Fig 2B, read-out: Topo IV decatenation inhibition response): 97.1%
- Topo IV decatenation inhibition response ([4]; P. aeruginosa topo IV, compound 25 μM, source data Fig 2B, listed as 977, 25 µM): 94.54
- inhibition at 25 µM ([4]; P. aeruginosa topo IV, compound 25 μM, source data Fig 2B, read-out: Topo IV decatenation inhibition response): 99.2%
- MIC (P. aeruginosa ATCC 27853 [5]): 0.125 µg/mL (≈ 0.267 µM)
- IC50 (P. aeruginosa gyrase): 9.4 nM
- Gyrase supercoiling inhibition response (P. aeruginosa gyrase; compound 0.0005 μM, source data Fig 2B, listed as 977, 0.0005 µM): 6.77
- Gyrase supercoiling inhibition response (P. aeruginosa gyrase; compound 0.001 μM, source data Fig 2B, listed as 977, 0.001 µM): 9.59
- Gyrase supercoiling inhibition response (P. aeruginosa gyrase; compound 0.004 μM, source data Fig 2B, listed as 977, 0.004 µM): 27.41
- Gyrase supercoiling inhibition response (P. aeruginosa gyrase; compound 0.012 μM, source data Fig 2B, listed as 977, 0.012 µM): 48.08
- Gyrase supercoiling inhibition response (P. aeruginosa gyrase; compound 0.037 μM, source data Fig 2B, listed as 977, 0.037 µM): 69.93
- Gyrase supercoiling inhibition response (P. aeruginosa gyrase; compound 0.111 μM, source data Fig 2B, listed as 977, 0.111 µM): 87.28
- Gyrase supercoiling inhibition response (P. aeruginosa gyrase; compound 0.333 μM, source data Fig 2B, listed as 977, 0.333 µM): 93.63
- Gyrase supercoiling inhibition response (P. aeruginosa gyrase; compound 1 μM, source data Fig 2B, listed as 977, 1 µM): 99.48
- Gyrase supercoiling inhibition response (P. aeruginosa gyrase; compound 3 μM, source data Fig 2B, listed as 977, 3 µM): 100.23
- inhibition at 0.0005 µM (P. aeruginosa gyrase; read-out: Gyrase supercoiling inhibition response, P. aeruginosa gyrase, compound 0.0005 μM, source data Fig 2B): 12.6%
- inhibition at 0.001 µM (P. aeruginosa gyrase; read-out: Gyrase supercoiling inhibition response, P. aeruginosa gyrase, compound 0.001 μM, source data Fig 2B): 16.5%
- inhibition at 0.004 µM (P. aeruginosa gyrase; read-out: Gyrase supercoiling inhibition response, P. aeruginosa gyrase, compound 0.004 μM, source data Fig 2B): 32.4%
- inhibition at 0.012 µM (P. aeruginosa gyrase; read-out: Gyrase supercoiling inhibition response, P. aeruginosa gyrase, compound 0.012 μM, source data Fig 2B): 61.3%
- inhibition at 0.037 µM (P. aeruginosa gyrase; read-out: Gyrase supercoiling inhibition response, P. aeruginosa gyrase, compound 0.037 μM, source data Fig 2B): 85.1%
- inhibition at 0.111 µM (P. aeruginosa gyrase; read-out: Gyrase supercoiling inhibition response, P. aeruginosa gyrase, compound 0.111 μM, source data Fig 2B): 97.4%
- inhibition at 0.333 µM (P. aeruginosa gyrase; read-out: Gyrase supercoiling inhibition response, P. aeruginosa gyrase, compound 0.333 μM, source data Fig 2B): 99%
- inhibition at 1 µM (P. aeruginosa gyrase; read-out: Gyrase supercoiling inhibition response, P. aeruginosa gyrase, compound 1 μM, source data Fig 2B): 99.8%
- inhibition at 3 µM (P. aeruginosa gyrase; read-out: Gyrase supercoiling inhibition response, P. aeruginosa gyrase, compound 3 μM, source data Fig 2B): 103%
- MIC90 against diverse global isolates (A. baumannii): 1 µg/mL (≈ 2.13 µM)
- MIC (P. aeruginosa BAA 2797): 0.25 µg/mL (≈ 0.534 µM)
